The results in this text go back to ChEMBL document CHEMBL3044616, “Synthesis, crystal structure and -glucuronidase inhibition activity of some new hydrazinecarboxamides and their 1,2,4-triazole derivatives” (Med Chem Res, 2012).

Each structure is given as a SMILES string. Active and inactive are the calls of the source. The rule behind the calls is not given here.

Assay [1] relates to Escherichia coli. As to the kind of experiment: Inhibition of Escherichia coli beta-glucuronidase using para-nitrophenyl-beta-D-glucuronide as substrate at 0.2 mM incubated for 30 min prior to substrate addition measured for 30 min by spectrophotometric analysis.
Assay [2] in a line: Inhibition of Escherichia coli beta-glucuronidase using para-nitrophenyl-beta-D-glucuronide as substrate incubated for 30 min prior to substrate addition measured for 30 min by spectrophotometric analysis.

The inhibition is the share of the control response that was lost under treatment. For the compound `COc1cccc(Cc2n[nH]c(=O)n2-c2cccc(OC)c2)c1`, the inhibition result in assay [1] was “inactive”.

As for `COc1ccccc1Cc1n[nH]c(=O)n1-c1ccccc1OC`, the inhibition result in assay [1] is “inactive”.

For the compound `COc1cccc(Cc2n[nH]c(=O)n2-c2ccccc2OC)c1`, the inhibition entry in assay [1] is “inactive”.

Turning to `COc1ccc(Cc2n[nH]c(=O)n2-c2ccccc2OC)cc1`, the inhibition entry in assay [1] is “inactive”.

What is called IC50 is the concentration that gives 50% inhibition. Low readings indicate higher potency, high ones lower potency. In turn, `COc1cccc(CC(=O)NNC(=O)Nc2ccccc2OC)c1` returned an inhibition in assay [1] of 68.3%. This compound also showed a concentration for half-maximal inhibition (IC50) in assay [2] of 134 µM.

For `COc1ccc(NC(=O)NNC(=O)CCc2cccc(OC)c2)cc1`, the inhibition in assay [1] is 73.3%. The same compound yielded an IC50 in assay [2] of 74.5 µM.

Consider `COc1ccccc1CCc1n[nH]c(=O)n1-c1ccccc1OC`, for which, in assay [1], the inhibition entry was “inactive”.

In turn, `COc1ccccc1CC(=O)NNC(=O)Nc1ccccc1OC` returned an inhibition in assay [1] of 88.8%. Moreover, the half-inhibitory concentration (IC50) in assay [2] was 40.7 µM.

In turn, `O=C(O)[C@@H](O)[C@H]1OC(=O)[C@H](O)[C@H]1O` returned an inhibition in assay [1] of 86.2%.

With `COc1cccc(-n2c(Cc3ccccc3OC)n[nH]c2=O)c1`, the inhibition entry in assay [1] is “inactive”.

Regarding `COc1ccc(CC(=O)NNC(=O)Nc2ccccc2OC)cc1`, in assay [1], the inhibition came out at 94.5%. This compound came in with an IC50 in assay [2] of 16.8 µM.

In turn, `COc1cccc(CC(=O)NNC(=O)Nc2cccc(OC)c2)c1` came in with an inhibition in assay [1] of 70.8%. The compound further registered a half-inhibitory concentration (IC50) in assay [2] of 101 µM.

The compound `COc1cccc(CCC(=O)NNC(=O)Nc2ccccc2OC)c1` had an inhibition in assay [1] of 82.9%. In assay [2], this compound registered a concentration for half-maximal inhibition (IC50) of 52.4 µM.

`COc1ccc(CCc2n[nH]c(=O)n2-c2cccc(OC)c2)cc1`: the inhibition result in assay [1] was “inactive”.

Take `COc1ccc(NC(=O)NNC(=O)CCc2ccccc2OC)cc1`: the inhibition in assay [1] worked out at 87.9%. In addition, in assay [2], the midpoint of inhibition, the IC50, lay at 15.5 µM.

Regarding `COc1ccc(-n2c(CCc3ccccc3OC)n[nH]c2=O)cc1`, in assay [1], the inhibition entry was “inactive”.

In the case of `COc1cccc(CCc2n[nH]c(=O)n2-c2cccc(OC)c2)c1`, the inhibition result in assay [1] is “inactive”.

In the case of `COc1ccc(CCC(=O)NNC(=O)Nc2cccc(OC)c2)cc1`, the inhibition in assay [1] turned out to be 59.3%. In assay [2], this compound displayed a half-maximal inhibitory concentration (IC50) of 96.7 µM.

In the case of `COc1ccc(CCc2n[nH]c(=O)n2-c2ccccc2OC)cc1`, the inhibition entry in assay [1] was “inactive”.

In assay [1], `COc1ccc(CCC(=O)NNC(=O)Nc2ccccc2OC)cc1` returned an inhibition of 83.7%. Also, half-maximal inhibition in assay [2] (IC50) was put at 46.1 µM.

The compound `COc1cccc(NC(=O)NNC(=O)CCc2ccccc2OC)c1` had an inhibition in assay [1] of 54.6%. The same compound displayed a half-inhibitory concentration (IC50) in assay [2] of 83.7 µM.

Turning to `COc1cccc(CCc2n[nH]c(=O)n2-c2ccccc2OC)c1`, the inhibition entry in assay [1] is “inactive”.

In assay [1], `COc1cccc(CCC(=O)NNC(=O)Nc2cccc(OC)c2)c1` showed an inhibition of 52%. Half-maximal inhibition in assay [2] (IC50) required 179 µM.

Take `COc1cccc(NC(=O)NNC(=O)Cc2ccccc2OC)c1`: in assay [1], the inhibition stood at 46.5%.

On to `COc1cccc(-n2c(CCc3ccccc3OC)n[nH]c2=O)c1`, for which the inhibition entry in assay [1] was “inactive”.

As for `COc1ccccc1CCC(=O)NNC(=O)Nc1ccccc1OC`, the inhibition in assay [1] came to 77.6%. In assay [2], this compound had a half-maximal inhibitory concentration (IC50) of 67.3 µM.
